In ChEMBL document CHEMBL3124857, “Encoded library technology as a source of hits for the discovery and lead optimization of a potent and selective class of bactericidal direct inhibitors of Mycobacterium tuberculosis InhA” (J Med Chem, 2014):
Values after ≈ are worked out from the molar mass of the structure shown. Active and inactive are the calls of the source. The rule behind the calls is not given here.

Key:
[1] = tested on: Mycobacterium tuberculosis; assay: Bactericidal activity against Mycobacterium tuberculosis H37Rv assessed as log reduction of bacterial CFU at 1.2 ug/mL after 1 week; assay type: functional, organism-based
[2] = tested on: Mycobacterium tuberculosis; assay: Antitubercular activity against Mycobacterium tuberculosis H37Rv infected in C57BL/6 mouse assessed as reduction of bacterial CFU in lung at 30 mg/kg, po administered for 8 days measured 24 hrs post last dose relative to control; assay type: functional
[3] = Half life in mouse liver microsomes at 0.5 uM; assay type: ADME, Microsome
[4] = Plasma protein binding in human at 1 uM after 4 to 6 hrs by LC-MS/MS analysis; assay type: ADME, cell-free; conditions: read-out: PPB (converted)
[5] = Permeability of the compound by artificial membrane permeability assay; assay type: physicochemical; conditions: PAMPA; read-out: permeability
[6] = Cmax in C57BL/6J mouse at 50 mg/kg, po; assay type: ADME, organism-based; parameters: dose 50 mg/kg, route oral; conditions: in vivo
[7] = Total AUC in C57BL/6J mouse at 1000 mg/kg, po measured at 24 hrs; assay type: ADME, organism-based; parameters: time AUCmax, dose 1000 mg/kg, route oral; conditions: in vivo
[8] = Oral bioavailability in C57BL/6J mouse at 50 mg/kg; assay type: ADME, organism-based; conditions: in vivo
[9] = tested on: Mycobacterium tuberculosis; assay: Antitubercular activity against Mycobacterium tuberculosis H37Rv infected in C57BL/6 mouse assessed as reduction of bacterial CFU in lung at 500 to 1000 mg/kg, po administered for 8 days measured 24 hrs post last dose; assay type: functional, organism-based
[10] = tested on: Mycobacterium tuberculosis; assay: Antitubercular activity against wild type Mycobacterium tuberculosis H37Rv ATCC 25618 assessed as growth inhibition after 6 days by resazurin dye-based assay; assay type: functional; conditions: H37Rv ATCC 25618, 144 h
[11] = Plasma protein binding in mouse at 1 uM after 4 to 6 hrs by LC-MS/MS analysis; assay type: ADME, cell-free; conditions: read-out: PPB (converted)
Cytochrome P450 2D6 = Cytochrome P450 2D6 (Homo sapiens, UniProt P10635); assay: Inhibition of human CYP2D6 by fluorescence assay; assay type: ADME
[12] = Lipophilicity, log D of the compound at pH 7.4 by chromatographic analysis; assay type: physicochemical; conditions: buffer
[13] = tested on: Mycobacterium tuberculosis; assay: Antitubercular activity against Mycobacterium tuberculosis infected in human THP1 cells assessed as growth inhibition after 5 days by luciferase reporter gene assay; assay type: functional, THP-1; conditions: 120 h
[14] = biological target: T1, Enoyl-[acyl-carrier-protein] reductase [NADH] (Mycobacterium tuberculosis, UniProt P9WGR1); assay: Inhibition of Mycobacterium tuberculosis full length biotinylated InhA (270 amino acids) using DDCoA as substrate assessed as NADH oxidation by fluorimetric analysis
T1 sequence (P9WGR1 whole entry): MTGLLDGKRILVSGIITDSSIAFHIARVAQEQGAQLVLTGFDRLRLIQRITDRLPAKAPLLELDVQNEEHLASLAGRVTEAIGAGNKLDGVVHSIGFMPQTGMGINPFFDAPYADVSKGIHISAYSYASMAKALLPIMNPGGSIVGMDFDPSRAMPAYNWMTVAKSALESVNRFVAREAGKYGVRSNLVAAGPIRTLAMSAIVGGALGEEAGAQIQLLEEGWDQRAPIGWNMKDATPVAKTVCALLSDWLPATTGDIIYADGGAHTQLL

Cytochrome P450 2C19 = Cytochrome P450 2C19 (Homo sapiens, UniProt P33261); assay: Inhibition of human CYP2C19 by fluorescence assay; assay type: ADME
[15] = Half life in human liver microsomes at 0.5 uM; assay type: ADME
[16] = Kinetic solubility of the compound after 1 hr by CLND assay; assay type: physicochemical; conditions: read-out: Kinetic_solubility
[17] = Volume of distribution in C57BL/6J mouse at 4 mg/kg, iv; assay type: ADME, organism-based; parameters: dose 4 mg/kg, route intravenous; conditions: in vivo
[18] = Tmax in C57BL/6J mouse at 50 mg/kg, po; assay type: ADME, organism-based; parameters: dose 50 mg/kg, route oral; conditions: in vivo
[19] = Clearance in C57BL/6J mouse at 4 mg/kg, iv; assay type: ADME, organism-based; parameters: dose 4 mg/kg, route intravenous; conditions: in vivo
[20] = tested on: Mycobacterium tuberculosis; assay: Bactericidal activity against Mycobacterium tuberculosis H37Rv assessed as log reduction of bacterial CFU at 20 times MIC after 1 week relative to control; assay type: functional
Cytochrome P450 2C9 = Cytochrome P450 2C9 (Homo sapiens, UniProt P11712); assay: Inhibition of human CYP2C9 by fluorescence assay; assay type: ADME
Liver microsome = assay: Intrinsic clearance in human liver microsomes at 0.5 uM; assay type: ADME
[21] = AUC (0 to infinity) in C57BL/6J mouse at 50 mg/kg, po; assay type: ADME, organism-based; parameters: time infinity, dose 50 mg/kg, route oral; conditions: plasma
Cytochrome P450 3A4 = Cytochrome P450 3A4 (Homo sapiens, UniProt P08684); assay: Inhibition of human CYP3A4 by fluorescence assay; assay type: ADME
[22] = Cmax in C57BL/6J mouse at 1000 mg/kg, po measured at 24 hrs; assay type: ADME, organism-based; parameters: dose 1000 mg/kg, route oral; conditions: in vivo
[23] = Intrinsic clearance in mouse liver microsomes at 0.5 uM; assay type: ADME, Microsome
Cytochrome P450 1A2 = biological target: T2, Cytochrome P450 1A2 (Homo sapiens, UniProt P05177); assay: Inhibition of human CYP1A2 by fluorescence assay; assay type: ADME
T2 sequence (P05177 whole entry): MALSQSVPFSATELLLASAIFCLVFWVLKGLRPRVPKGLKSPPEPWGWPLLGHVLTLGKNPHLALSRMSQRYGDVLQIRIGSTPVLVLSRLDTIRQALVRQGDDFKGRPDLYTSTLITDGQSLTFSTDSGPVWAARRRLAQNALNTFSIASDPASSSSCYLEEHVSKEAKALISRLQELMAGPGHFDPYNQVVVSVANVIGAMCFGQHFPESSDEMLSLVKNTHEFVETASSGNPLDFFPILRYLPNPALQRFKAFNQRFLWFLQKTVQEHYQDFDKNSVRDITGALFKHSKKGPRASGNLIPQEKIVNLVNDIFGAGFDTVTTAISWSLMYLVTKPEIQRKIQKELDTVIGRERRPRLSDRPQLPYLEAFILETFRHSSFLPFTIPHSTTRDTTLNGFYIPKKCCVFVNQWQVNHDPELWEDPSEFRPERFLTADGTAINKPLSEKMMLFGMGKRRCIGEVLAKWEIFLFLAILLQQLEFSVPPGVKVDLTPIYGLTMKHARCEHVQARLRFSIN

[24] = Half life in C57BL/6J mouse at 4 mg/kg, iv; assay type: ADME, organism-based; parameters: dose 4 mg/kg, route intravenous; conditions: in vivo
[25] = Intrinsic clearance in mouse hepatocytes at 1 uM; assay type: ADME, cell-based, Hepatocyte; conditions: read-out: CLH
Hepatocyte [26] = assay: Drug metabolism in mouse hepatocytes assessed as N-dealkylated ethylamide metabolite formation; assay type: ADME, cell-based
[27] = biological target: Voltage-gated inwardly rectifying potassium channel KCNH2 (Homo sapiens, UniProt Q12809); assay: Displacement of [3H]-dofetilide from human ERG after 1 hr by liquid scintillation counting analysis
Hepatocyte [28] = assay: Drug metabolism in human hepatocytes assessed as oxidized metabolite formation; assay type: ADME, cell-based
Escherichia coli = assay: Antibacterial activity against Escherichia coli assessed as growth inhibition by broth microdilution assay; assay type: functional
Hepatocyte [29] = assay: Drug metabolism in mouse hepatocytes assessed as N-dealkylated pyrazole metabolite formation; assay type: ADME, cell-based
[30] = Half life in human hepatocytes at 10 uM; assay type: ADME, cell-based, Hepatocyte
Enterococcus faecium = assay: Antibacterial activity against Enterococcus faecium assessed as growth inhibition by broth microdilution assay; assay type: functional
Enterococcus faecalis = assay: Antibacterial activity against Enterococcus faecalis assessed as growth inhibition by broth microdilution assay; assay type: functional
Moraxella catarrhalis = assay: Antibacterial activity against Moraxella catarrhalis assessed as growth inhibition by broth microdilution assay; assay type: functional
[31] = Intrinsic clearance in human hepatocytes at 1 uM; assay type: ADME, cell-based, Hepatocyte; conditions: read-out: CLH
Streptococcus pyogenes = assay: Antibacterial activity against Streptococcus pyogenes assessed as growth inhibition by broth microdilution assay; assay type: functional
Hepatocyte [32] = assay: Drug metabolism in human hepatocytes assessed as N-dealkylated pyrazole metabolite formation; assay type: ADME, cell-based
Hepatocyte [33] = assay: Drug metabolism in mouse hepatocytes assessed as oxidized metabolite formation; assay type: ADME, cell-based
HepG2 = assay: Cytotoxicity against human HepG2 cells after 48 hrs by resazurin dye-based fluorescence assay; assay type: cell-based; conditions: HepG2, 48 h
Streptococcus pneumoniae = assay: Antibacterial activity against Streptococcus pneumoniae assessed as growth inhibition by broth microdilution assay; assay type: functional
Hepatocyte [34] = assay: Drug metabolism in human hepatocytes assessed as N-dealkylated ethylamide metabolite formation; assay type: ADME, cell-based
[35] = Half life in mouse hepatocytes at 10 uM; assay type: ADME, cell-based, Hepatocyte
Haemophilus influenzae = assay: Antibacterial activity against Haemophilus influenzae assessed as growth inhibition by broth microdilution assay; assay type: functional

Cytochrome P450 3A4, sequence (P08684 whole entry): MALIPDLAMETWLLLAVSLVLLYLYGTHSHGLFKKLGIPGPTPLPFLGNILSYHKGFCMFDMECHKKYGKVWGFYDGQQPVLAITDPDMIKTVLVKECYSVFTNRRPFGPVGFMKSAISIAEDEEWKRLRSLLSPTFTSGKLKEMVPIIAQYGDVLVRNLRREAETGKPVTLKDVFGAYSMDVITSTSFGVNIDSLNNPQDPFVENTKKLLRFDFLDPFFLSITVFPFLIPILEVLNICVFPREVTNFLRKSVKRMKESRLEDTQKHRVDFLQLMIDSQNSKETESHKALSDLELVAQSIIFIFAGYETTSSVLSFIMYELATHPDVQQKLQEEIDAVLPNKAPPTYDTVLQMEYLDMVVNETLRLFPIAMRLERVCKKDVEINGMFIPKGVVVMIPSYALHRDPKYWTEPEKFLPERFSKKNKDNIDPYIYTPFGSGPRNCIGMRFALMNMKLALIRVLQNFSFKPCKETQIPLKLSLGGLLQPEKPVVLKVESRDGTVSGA
Cytochrome P450 2D6, sequence (P10635 whole entry): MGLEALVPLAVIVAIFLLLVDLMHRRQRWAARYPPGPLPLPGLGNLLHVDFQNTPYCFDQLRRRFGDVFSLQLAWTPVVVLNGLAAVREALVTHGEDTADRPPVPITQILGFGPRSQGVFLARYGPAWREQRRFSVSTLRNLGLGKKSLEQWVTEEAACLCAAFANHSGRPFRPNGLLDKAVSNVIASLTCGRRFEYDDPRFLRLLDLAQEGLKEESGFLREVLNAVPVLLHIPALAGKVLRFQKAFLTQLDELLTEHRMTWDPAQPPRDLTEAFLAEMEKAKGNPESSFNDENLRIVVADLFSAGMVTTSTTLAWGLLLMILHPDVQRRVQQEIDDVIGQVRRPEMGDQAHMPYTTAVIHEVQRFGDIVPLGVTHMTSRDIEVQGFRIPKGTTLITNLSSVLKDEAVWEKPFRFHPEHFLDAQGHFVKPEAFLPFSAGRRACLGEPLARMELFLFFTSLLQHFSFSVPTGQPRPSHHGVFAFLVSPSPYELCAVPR
Cytochrome P450 2C9, sequence (P11712 whole entry): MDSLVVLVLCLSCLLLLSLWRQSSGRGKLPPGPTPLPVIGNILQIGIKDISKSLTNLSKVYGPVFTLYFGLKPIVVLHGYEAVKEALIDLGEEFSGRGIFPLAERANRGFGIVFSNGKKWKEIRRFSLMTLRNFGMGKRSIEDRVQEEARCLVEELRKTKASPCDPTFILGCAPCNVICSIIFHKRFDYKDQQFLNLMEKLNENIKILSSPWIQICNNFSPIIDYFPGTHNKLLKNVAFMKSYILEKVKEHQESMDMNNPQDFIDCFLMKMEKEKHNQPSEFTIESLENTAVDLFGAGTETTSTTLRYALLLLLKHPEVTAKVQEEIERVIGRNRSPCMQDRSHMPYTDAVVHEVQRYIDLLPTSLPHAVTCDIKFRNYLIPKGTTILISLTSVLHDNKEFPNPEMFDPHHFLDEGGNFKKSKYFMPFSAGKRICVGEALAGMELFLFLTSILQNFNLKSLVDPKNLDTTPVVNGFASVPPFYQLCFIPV
Cytochrome P450 2C19, sequence (P33261 whole entry): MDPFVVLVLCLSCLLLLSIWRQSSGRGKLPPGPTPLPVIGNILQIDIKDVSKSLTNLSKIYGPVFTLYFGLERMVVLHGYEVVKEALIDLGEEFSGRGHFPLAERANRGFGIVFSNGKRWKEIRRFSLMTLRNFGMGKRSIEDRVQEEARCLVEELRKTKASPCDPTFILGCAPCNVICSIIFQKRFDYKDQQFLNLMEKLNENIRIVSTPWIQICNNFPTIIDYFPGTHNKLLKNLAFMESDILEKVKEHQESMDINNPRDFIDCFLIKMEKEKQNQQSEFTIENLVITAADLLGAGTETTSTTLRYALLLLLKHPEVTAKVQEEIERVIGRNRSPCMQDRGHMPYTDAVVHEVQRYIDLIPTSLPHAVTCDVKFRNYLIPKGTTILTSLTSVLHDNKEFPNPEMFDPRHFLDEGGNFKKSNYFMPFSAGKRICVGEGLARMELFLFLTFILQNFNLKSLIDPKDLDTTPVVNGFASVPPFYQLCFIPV
Voltage-gated inwardly rectifying potassium channel KCNH2, sequence (Q12809 whole entry): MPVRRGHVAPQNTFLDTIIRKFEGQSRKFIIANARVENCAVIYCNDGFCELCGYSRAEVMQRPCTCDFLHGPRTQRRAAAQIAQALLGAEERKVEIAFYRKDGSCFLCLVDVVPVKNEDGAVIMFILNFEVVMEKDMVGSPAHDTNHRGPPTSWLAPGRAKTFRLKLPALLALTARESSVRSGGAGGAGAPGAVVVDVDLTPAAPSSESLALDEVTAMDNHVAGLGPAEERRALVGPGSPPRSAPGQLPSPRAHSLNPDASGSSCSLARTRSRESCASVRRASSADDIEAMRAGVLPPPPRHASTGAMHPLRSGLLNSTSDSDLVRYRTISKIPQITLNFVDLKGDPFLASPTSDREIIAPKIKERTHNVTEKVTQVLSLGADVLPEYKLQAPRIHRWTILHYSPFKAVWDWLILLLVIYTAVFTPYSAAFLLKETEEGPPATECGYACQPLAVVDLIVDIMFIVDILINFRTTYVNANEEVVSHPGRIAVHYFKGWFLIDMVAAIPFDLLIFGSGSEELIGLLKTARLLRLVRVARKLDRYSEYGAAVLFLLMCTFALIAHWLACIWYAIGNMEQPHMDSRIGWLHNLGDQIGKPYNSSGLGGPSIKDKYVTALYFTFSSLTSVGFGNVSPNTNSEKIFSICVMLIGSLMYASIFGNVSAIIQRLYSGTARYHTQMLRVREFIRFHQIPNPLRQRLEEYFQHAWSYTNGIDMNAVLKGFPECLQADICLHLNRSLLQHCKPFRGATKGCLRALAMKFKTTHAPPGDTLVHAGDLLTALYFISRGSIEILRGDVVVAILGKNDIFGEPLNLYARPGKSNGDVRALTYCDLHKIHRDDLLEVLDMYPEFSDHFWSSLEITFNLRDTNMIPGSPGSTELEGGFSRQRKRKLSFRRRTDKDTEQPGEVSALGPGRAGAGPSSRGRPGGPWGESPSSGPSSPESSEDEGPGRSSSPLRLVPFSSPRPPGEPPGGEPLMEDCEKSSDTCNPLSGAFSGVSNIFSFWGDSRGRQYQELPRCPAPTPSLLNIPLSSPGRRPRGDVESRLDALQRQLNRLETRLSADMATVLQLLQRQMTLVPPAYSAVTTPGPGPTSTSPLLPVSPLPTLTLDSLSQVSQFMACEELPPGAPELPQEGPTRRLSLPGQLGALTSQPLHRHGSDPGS

Structure (SMILES): COc1c(N2C[C@@H]3CCCN[C@@H]3C2)c(F)cc2c(=O)c(C(=O)O)cn(C3CC3)c12 [MOXIFLOXACIN]
- Activity [1]: Active
- fold change (FC) [2]: 3.48

Structure (SMILES): CCc1cc(C(=O)N[C@@H]2C[C@@H](C(N)=O)N(C(=O)c3coc4ccccc34)C2)n(CC)n1
- half-life at 0.5 µM [3]: > 30 min
- fraction unbound at 1 µM [4]: 0.013
- Papp [5]: 7.8 ×10⁻⁶ cm/s
- Cmax [6]: 1750 ng/mL
- AUC at 24 h [7]: 73700 ng·h/mL
- bioavailability [8]: 35.6%
- Activity [9]: inactive
- MIC90 [10]: 0.5 µM (≈ 0.212 µg/mL)
- fraction unbound at 1 µM [11]: 0.153
- IC50 (Cytochrome P450 2D6): > 50 µM
- chromatographic logD [12]: 2.94
- MIC [13]: 0.24 µM (≈ 0.102 µg/mL)
- IC50 [14]: 0.004 µM
- IC50 (Cytochrome P450 2C19): > 50 µM
- half-life at 0.5 µM [15]: > 30 min
- solubility kinetic at 1 h [16]: > 441 µM
- Vd [17]: 3.68 L/kg
- Tmax [18]: 49.8 min
- clearance [19]: 85.5 mL/min/kg
- FC [20]: >2
- IC50 (Cytochrome P450 2C9): > 50 µM
- CLH (Liver microsome): < 0.3 mL/min/g
- AUC(0-inf) [21]: 3590 ng·h/mL
- IC50 (Cytochrome P450 3A4): > 50 µM
- Cmax [22]: 23000 ng/mL
- CLH [23]: < 0.3 mL/min/g
- IC50 (Cytochrome P450 1A2): > 50 µM
- half-life [24]: 28.2 min

Structure (SMILES): CCNC(=O)[C@@H]1C[C@@H](NC(=O)c2cc(CC)nn2C)CN1C(=O)c1coc2ccccc12
- half-life at 0.5 µM [3]: 28 min
- CLint scaled at 1 µM [25]: 538 mL/min/kg
- Papp [5]: 13 ×10⁻⁶ cm/s
- Drug metabolism (Hepatocyte [26]): Active
- IC50 [27]: > 50 µM
- Drug metabolism (Hepatocyte [28]): Active
- MIC (Escherichia coli): > 64 µM
- Drug metabolism (Hepatocyte [29]): Active
- MIC [10]: 8 µM (≈ 3.5 µg/mL)
- half-life at 10 µM [30]: 227 min
- MIC (Enterococcus faecium): > 64 µM
- fraction unbound at 1 µM [11]: 0.144
- MIC (Enterococcus faecalis): > 64 µM
- IC50 (Cytochrome P450 2D6): > 50 µM
- MIC (Moraxella catarrhalis): > 64 µM
- CLint scaled at 1 µM [31]: 19 mL/min/kg
- chromatographic logD [12]: 2.93
- MIC (Streptococcus pyogenes): > 64 µM
- Drug metabolism (Hepatocyte [32]): Active
- IC50 [14]: 0.034 µM
- IC50 (Cytochrome P450 2C19): > 50 µM
- half-life at 0.5 µM [15]: > 30 min
- solubility kinetic at 1 h [16]: > 448 µM
- IC50 (Cytochrome P450 2C9): > 50 µM
- CLH (Liver microsome): 0.7 mL/min/g
- IC50 (Cytochrome P450 3A4): > 50 µM
- Drug metabolism (Hepatocyte [33]): Active
- CLH [23]: 2.6 mL/min/g
- IC50 (Cytochrome P450 1A2): > 50 µM
- IC50 (HepG2): > 50 µM
- MIC (Streptococcus pneumoniae): > 64 µM
- Drug metabolism (Hepatocyte [34]): Active
- half-life at 10 µM [35]: 27 min
- MIC (Haemophilus influenzae): > 64 µM
